The source of these data is US9718828B2 (MERCK SHARP & DOHME CORP., priority 2011, dated 2017).

Each structure is given as a SMILES string. Structures can show the parent of a compound that is named as a salt.

Btk enzyme (His-Btk), sequence (Q06187 whole entry): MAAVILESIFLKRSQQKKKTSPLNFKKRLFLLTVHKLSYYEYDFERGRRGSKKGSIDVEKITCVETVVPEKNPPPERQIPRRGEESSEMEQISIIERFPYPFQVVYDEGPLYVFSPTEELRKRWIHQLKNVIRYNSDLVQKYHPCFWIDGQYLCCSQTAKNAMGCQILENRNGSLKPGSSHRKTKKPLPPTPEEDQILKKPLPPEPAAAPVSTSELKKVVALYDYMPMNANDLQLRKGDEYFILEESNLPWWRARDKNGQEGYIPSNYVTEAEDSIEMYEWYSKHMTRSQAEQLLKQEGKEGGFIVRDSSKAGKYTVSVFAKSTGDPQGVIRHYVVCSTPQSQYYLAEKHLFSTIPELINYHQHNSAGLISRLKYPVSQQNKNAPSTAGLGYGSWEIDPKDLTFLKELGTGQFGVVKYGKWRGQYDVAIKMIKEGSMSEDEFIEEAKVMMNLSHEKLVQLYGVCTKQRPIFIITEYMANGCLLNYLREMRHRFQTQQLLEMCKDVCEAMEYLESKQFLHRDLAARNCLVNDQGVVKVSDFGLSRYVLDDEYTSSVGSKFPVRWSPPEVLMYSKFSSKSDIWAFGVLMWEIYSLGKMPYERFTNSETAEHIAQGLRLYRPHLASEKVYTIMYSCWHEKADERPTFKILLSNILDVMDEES

One experiment addresses Btk enzyme (His-Btk) (Homo sapiens (Human), UniProt Q06187). As to the kind of experiment: Btk enzyme activity, IMAP fluorescence polarization assay (Assay Method A).
Settings: not given
As a reminder, the EC50 is the concentration that produces a half-maximal response. `Nc1nccn2c(C3CCc4[nH]nc(C5CC5)c4C3)nc(-c3ccc(C(=O)Nc4cc(C(F)(F)F)ccn4)cc3)c12` (centres unmarked) [Example 248, 4-(8-amino-3-(3-cyclopropyl-4,5,6,7-tetrahydro-1H-indazol-5-yl)imidazo[1,5-a]pyrazin-1-yl)-N-(4-(trifluoromethyl)pyridin-2-yl)benzamide]: the 50% effective concentration (EC50) was less than 0.01 µM.

`COCc1n[nH]c2c1CC(c1nc(-c3ccc(C(=O)Nc4cc(C(F)(F)F)ccn4)cc3)c3c(N)nccn13)CC2` (centres unmarked) [Example 250, 4-(8-amino-3-(3-(methoxymethyl)-4,5,6,7-tetrahydro-1H-indazol-5-yl)imidazo[1,5-a]pyrazin-1-yl)-N-(4-(trifluoromethyl)pyridin-2-yl)benzamide] gave an EC50 of 0.01 to 0.1 µM.

`CCOC(=O)N1CCCC(c2cc(-c3ccc(C(=O)Nc4cc(C(F)(F)F)ccn4)cc3)c3c(N)ncnn23)C1` (centres unmarked) [Example 251, ethyl 3-(4-amino-5-(4-(4-(trifluoromethyl)pyridin-2-ylcarbamoyl)phenyl)pyrrolo[1,2-f][1,2,4]triazin-7-yl)piperidine-1-carboxylate] registered a concentration for a half-maximal effect (EC50) of less than 0.01 µM.

Turning to `CC1(C(=O)N2CCC[C@@H](c3nc(-c4ccc(C(=O)Nc5cc(C(F)(F)F)ccn5)cc4)c4c(N)ncnn34)C2)CCC1` [Example 254, (R)-4-(4-amino-7-(1-(1-methylcyclobutanecarbonyl)piperidin-3-yl)imidazo[1,5-f][1,2,4]triazin-5-yl)-N-(4-(trifluoromethyl)pyridin-2-yl)benzamide], the half-maximal effective concentration (EC50) was less than 0.01 µM.

Turning to `Nc1ncnn2c([C@@H]3CCCNC3)nc(-c3ccc(C(=O)Nc4cc(C(F)(F)F)ccn4)cc3)c12` [Example 258, (R)-4-(4-amino-7-(piperidin-3-yl)imidazo[1,5-f][1,2,4]triazin-5-yl)-N-(4-(trifluoromethyl)pyridin-2-yl)benzamide], the EC50 was in the range of 0.01 to 0.1 µM.

Take `Nc1ncnc2c1c(-c1ccc(C(=O)Nc3cc(C(F)(F)F)ccn3)cc1)nn2[C@@H]1CCCN(C(=O)[C@H]2CCCO2)C1` [Example 262, 4-(4-amino-1-((R)-1-((R)-tetrahydrofuran-2-carbonyl)piperidin-3-yl)-1H-pyrazolo[3,4-d]pyrimidin-3-yl)-N-(4-(trifluoromethyl)pyridin-2-yl)benzamide]: the half-maximal effective concentration (EC50) is less than 0.01 µM.

Staying with this experiment, now noted: read-out: EC50 Btk activity values - Assay Method A; IMAP-FP, 60 min pre-incubation, 5 μM ATP; class 100-1000 is given as ≧100 nM-<1 μM.
For `CCNC(=O)C1CCCN(c2nc(-c3ccc(C(=O)Nc4cc(C(F)(F)F)ccn4)cc3)c3c(N)nccn23)C1` (centres unmarked) [Example 236, 1-(8-amino-1-(4-(4-(trifluoromethyl)pyridin-2-ylcarbamoyl)phenyl)imidazo[1,5-a]pyrazin-3-yl)-N-ethylpiperidine-3-carboxamide, TFA salt], the EC50 was less than 0.01 µM.

For `Nc1nccn2c(N3CCCC(C(=O)N[C@H]4CCOC4)C3)nc(-c3ccc(C(=O)Nc4cc(C(F)(F)F)ccn4)cc3)c12` (stereo partly drawn) [Example 237, 1-(8-amino-1-(4-(4-(trifluoromethyl)pyridin-2-ylcarbamoyl)phenyl)imidazo[1,5-a]pyrazin-3-yl)-N-((S)-tetrahydrofuran-3-yl)piperidine-3-carboxamide, TFA salt], the 50% effective concentration (EC50) is less than 0.01 µM.

For `Nc1nccn2c(N3CCCC(C(=O)N[C@@H]4CCOC4)C3)nc(-c3ccc(C(=O)Nc4cc(C(F)(F)F)ccn4)cc3)c12` (stereo partly drawn) [Example 238, 1-(8-amino-1-(4-(4-(trifluoromethyl)pyridin-2-ylcarbamoyl)phenyl)imidazo[1,5-a]pyrazin-3-yl)-N-((R)-tetrahydrofuran-3-yl)piperidine-3-carboxamide, TFA salt], the half-maximal effective concentration (EC50) was less than 0.01 µM.

Consider `CSCCNC(=O)C1CCCN(c2nc(-c3ccc(C(=O)Nc4cc(C(F)(F)F)ccn4)cc3)c3c(N)nccn23)C1` (centres unmarked) [Example 239, 1-(8-amino-1-(4-(4-(trifluoromethyl)pyridin-2-ylcarbamoyl)phenyl)imidazo[1,5-a]pyrazin-3-yl)-N-(2-(methylthio)ethyl)piperidine-3-carboxamide, TFA salt], for which the concentration giving a half-maximal response (EC50) was less than 0.01 µM.

For the molecule `CS(=O)(=O)CCNC(=O)C1CCCN(c2nc(-c3ccc(C(=O)Nc4cc(C(F)(F)F)ccn4)cc3)c3c(N)nccn23)C1` (centres unmarked) [Example 240, 1-(8-amino-1-(4-(4-(trifluoromethyl)pyridin-2-ylcarbamoyl)phenyl)imidazo[1,5-a]pyrazin-3-yl)-N-(2-(methylsulfonyl)ethyl)piperidine-3-carboxamide, TFA salt], the half-maximal effective concentration (EC50) was less than 0.01 µM.

In the case of `COC[C@H](C)NC(=O)C1CCCN(c2nc(-c3ccc(C(=O)Nc4cc(C5CC5)ccn4)cc3)c3c(N)nccn23)C1` (stereo partly drawn) [Example 241, 1-(8-amino-1-(4-(4-cyclopropylpyridin-2-ylcarbamoyl)phenyl)imidazo[1,5-a]pyrazin-3-yl)-N-((S)-1-methoxypropan-2-yl)piperidine-3-carboxamide, TFA salt], the concentration for a half-maximal effect (EC50) is less than 0.01 µM.

As to `CONC(=O)C1CCCN(c2nc(-c3ccc(C(=O)Nc4cc(C(F)(F)F)ccn4)cc3)c3c(N)nccn23)C1` (centres unmarked) [Example 242, 1-(8-amino-1-(4-(4-(trifluoromethyl)pyridin-2-ylcarbamoyl)phenyl)imidazo[1,5-a]pyrazin-3-yl)-N-methoxypiperidine-3-carboxamide, TFA salt], the half-maximal effective concentration (EC50) is less than 0.01 µM.

As to `Nc1nccn2c(N3CCCC(C(=O)N4CCCC(F)(F)C4)C3)nc(-c3ccc(C(=O)Nc4cc(C(F)(F)F)ccn4)cc3)c12` (centres unmarked) [Example 243, 4-(8-amino-3-(3-(3,3-difluoropiperidine-1-carbonyl)piperidin-1-yl)imidazo[1,5-a]pyrazin-1-yl)-N-(4-(trifluoromethyl)pyridin-2-yl)benzamide, TFA salt], the EC50 was less than 0.01 µM.

On to `CONC(=O)C1CCCN(c2nc(-c3ccc(C(=O)Nc4cc(C5CC5)ccn4)cc3)c3c(N)nccn23)C1` (centres unmarked) [Example 244, 1-(8-amino-1-(4-(4-cyclopropylpyridin-2-ylcarbamoyl)phenyl)imidazo[1,5-a]pyrazin-3-yl)-N-methoxypiperidine-3-carboxamide, TFA salt], for which the EC50 is less than 0.01 µM.

For `Nc1nccn2c(N3CCCC(C(=O)NCC4CC4)C3)nc(-c3ccc(C(=O)Nc4cc(C5CC5)ccn4)cc3)c12` (centres unmarked) [Example 245, 1-(8-amino-1-(4-(4-cyclopropylpyridin-2-ylcarbamoyl)phenyl)imidazo[1,5-a]pyrazin-3-yl)-N-(cyclopropylmethyl)piperidine-3-carboxamide, TFA salt], the half-maximal effective concentration (EC50) is less than 0.01 µM.

Consider `CCN(CC)C(=O)C1CCCN(c2nc(-c3ccc(C(=O)Nc4cc(C5CC5)ccn4)cc3)c3c(N)nccn23)C1` (centres unmarked) [Example 246, 1-(8-amino-1-(4-(4-cyclopropylpyridin-2-ylcarbamoyl)phenyl)imidazo[1,5-a]pyrazin-3-yl)-N,N-diethylpiperidine-3-carboxamide, TFA salt], for which the EC50 is less than 0.01 µM.

Turning to `Nc1nccn2c(N3CCCC(C(=O)N4CCCC4)C3)nc(-c3ccc(C(=O)Nc4cc(C5CC5)ccn4)cc3)c12` (centres unmarked) [Example 247, 4-(8-amino-3-(3-(pyrrolidine-1-carbonyl)piperidin-1-yl)imidazo[1,5-a]pyrazin-1-yl)-N-(4-cyclopropylpyridin-2-yl)benzamide, TFA salt], the 50% effective concentration (EC50) is less than 0.01 µM.

Regarding `N#Cc1ccnc(NC(=O)c2ccc(-c3nc(C4CCc5[nH]nc(C6CC6)c5C4)n4ccnc(N)c34)cc2)c1` (centres unmarked) [Example 249, 4-(8-amino-3-(3-cyclopropyl-4,5,6,7-tetrahydro-1H-indazol-5-yl)imidazo[1,5-a]pyrazin-1-yl)-N-(4-cyanopyridin-2-yl)benzamide, TFA salt], the concentration for a half-maximal effect (EC50) is less than 0.01 µM.

For `CCNC(=O)N1CCCC(c2cc(-c3ccc(C(=O)Nc4cc(C(F)(F)F)ccn4)cc3)c3c(N)ncnn23)C1` (centres unmarked) [Example 252, 3-(4-amino-5-(4-(4-(trifluoromethyl)pyridin-2-ylcarbamoyl)phenyl)pyrrolo[1,2-f][1,2,4]triazin-7-yl)-N-ethylpiperidine-1-carboxamide], the 50% effective concentration (EC50) was less than 0.01 µM.

Take `CCOC(=O)N1CCC[C@@H](c2nc(-c3ccc(C(=O)Nc4cc(C(F)(F)F)ccn4)cc3)c3c(N)ncnn23)C1` [Example 255, (R)-ethyl 3-(4-amino-5-(4-(4-(trifluoromethyl)pyridin-2-ylcarbamoyl)phenyl)imidazo[1,5-f][1,2,4]triazin-7-yl)piperidine-1-carboxylate]: the concentration giving a half-maximal response (EC50) was less than 0.01 µM.

For the molecule `CCNC(=O)N1CCC[C@@H](c2nc(-c3ccc(C(=O)Nc4cc(C(F)(F)F)ccn4)cc3)c3c(N)ncnn23)C1` [Example 256, (R)-3-(4-amino-5-(4-(4-(trifluoromethyl)pyridin-2-ylcarbamoyl)phenyl)imidazo[1,5-f][1,2,4]triazin-7-yl)-N-ethylpiperidine-1-carboxamide], the EC50 was less than 0.01 µM.

Turning to `CC(C)(F)C(=O)N1CCC[C@@H](c2nc(-c3ccc(C(=O)Nc4cc(C(F)(F)F)ccn4)cc3)c3c(N)ncnn23)C1` [Example 257, (R)-4-(4-amino-7-(1-(2-fluoro-2-methylpropanoyl)piperidin-3-yl)imidazo[1,5-f][1,2,4]triazin-5-yl)-N-(4-(trifluoromethyl)pyridin-2-yl)benzamide], the EC50 is less than 0.01 µM.

With `CCOCCC(=O)N1CCC[C@@H](c2nc(-c3ccc(C(=O)Nc4cc(C(F)(F)F)ccn4)cc3)c3c(N)ncnn23)C1` [Example 259, (R)-4-(4-amino-7-(1-(3-ethoxypropanoyl)piperidin-3-yl)imidazo[1,5-f][1,2,4]triazin-5-yl)-N-(4-(trifluoromethyl)pyridin-2-yl)benzamide], the EC50 is less than 0.01 µM.

Turning to `Nc1ncnn2c([C@@H]3CCCN(C(=O)C4CC(F)(F)C4)C3)nc(-c3ccc(C(=O)Nc4cc(C(F)(F)F)ccn4)cc3)c12` [Example 260, (R)-4-(4-amino-7-(1-(3,3-difluorocyclobutanecarbonyl)piperidin-3-yl)imidazo[1,5-f][1,2,4]triazin-5-yl)-N-(4-(trifluoromethyl)pyridin-2-yl)benzamide], the EC50 is less than 0.01 µM.

For the molecule `CC1(C(=O)N2CCC[C@@H](c3nc(-c4ccc(C(=O)Nc5cc(C(F)(F)F)ccn5)cc4)c4c(N)ncnn34)C2)COC1` [Example 261, (R)-4-(4-amino-7-(1-(3-methyloxetane-3-carbonyl)piperidin-3-yl)imidazo[1,5-f][1,2,4]triazin-5-yl)-N-(4-(trifluoromethyl)pyridin-2-yl)benzamide], the EC50 is less than 0.01 µM.
